US20260069571A1, “DDR1 AND DDR2 INHIBITORS FOR THE TREATEMENT OF CANCER AND FIBROTIC DISEASES” (REDX PHARMA PLC, priority 2021, published 2026)

How the values were obtained:
Recombinant human DDR2 = Recombinant human DDR2 (Homo sapiens (Human), UniProt Q16832); experiment: LanthaScreen Eu Kinase Binding Assay, DDR2; conditions: DDR2 1.75 nM (aa427-855, GST tag), Kinase Tracer 178 10 nM; for IC50: read-out: DDR2 pIC50 (converted)
Method: (§1) DDR1 and DDR2 Biochemical Assay Method
(§2) The capacity of compounds to bind to DDR1 and DDR2 was quantified using a LanthaScreen Eu Kinase Binding Assay. Recombinant human DDR1 (2.5 nM; aa440-876 containing a GST tag) and DDR2 (1.75 nM; aa427-855 containing a GST tag) were diluted in assay buffer (50 mM HEPES pH7.3, 10 mM MgCl2, 1 mM EGTA and 0.01% Tween) with various concentrations of compound in a 384-well plate and a volume of 5 uL. After a 30-minute incubation at room temperature, 2.5 uL of Eu-anti GST antibody (diluted to 1 nM in assay buffer) plus Kinase Tracer 178 (diluted in assay buffer to 5 nM for DDR1 and 10 nM for DDR2) were added to the plate. Following 60-minute incubation at room temperature, time-resolved fluorescence was measured on a BMG Labtech PHERAstar plate reader. DMSO (1%) and reference compound (1 μM) were used to generate the Max and Min assay signals, respectively. Data was analysed using a four-parameter logistic model to calculate IC50 values, with at least two independent replicates were performed for each compound.

Recombinant human DDR1 = Recombinant human DDR1 (Homo sapiens (Human), UniProt Q08345); experiment: LanthaScreen Eu Kinase Binding Assay, DDR1; conditions: DDR1 2.5 nM (aa440-876, GST tag), Kinase Tracer 178 5 nM; for IC50: read-out: DDR1 pIC50 (converted)
Method: as §1, §2

Sequence of Recombinant human DDR2 (Q16832 427-855): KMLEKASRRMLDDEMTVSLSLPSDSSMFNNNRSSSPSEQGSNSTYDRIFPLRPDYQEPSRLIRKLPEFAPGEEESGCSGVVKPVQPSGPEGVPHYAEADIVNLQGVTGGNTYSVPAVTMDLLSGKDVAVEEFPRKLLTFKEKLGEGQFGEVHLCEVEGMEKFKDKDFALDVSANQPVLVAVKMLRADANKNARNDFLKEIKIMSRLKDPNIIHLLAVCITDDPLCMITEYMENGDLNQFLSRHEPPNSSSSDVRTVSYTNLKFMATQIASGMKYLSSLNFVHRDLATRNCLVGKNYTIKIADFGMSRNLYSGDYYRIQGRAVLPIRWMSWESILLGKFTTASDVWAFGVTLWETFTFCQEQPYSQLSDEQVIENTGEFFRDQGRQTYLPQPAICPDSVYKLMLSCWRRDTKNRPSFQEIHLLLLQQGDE
Sequence of Recombinant human DDR1 (Q08345 other isoform, or with tags, fused parts or gaps): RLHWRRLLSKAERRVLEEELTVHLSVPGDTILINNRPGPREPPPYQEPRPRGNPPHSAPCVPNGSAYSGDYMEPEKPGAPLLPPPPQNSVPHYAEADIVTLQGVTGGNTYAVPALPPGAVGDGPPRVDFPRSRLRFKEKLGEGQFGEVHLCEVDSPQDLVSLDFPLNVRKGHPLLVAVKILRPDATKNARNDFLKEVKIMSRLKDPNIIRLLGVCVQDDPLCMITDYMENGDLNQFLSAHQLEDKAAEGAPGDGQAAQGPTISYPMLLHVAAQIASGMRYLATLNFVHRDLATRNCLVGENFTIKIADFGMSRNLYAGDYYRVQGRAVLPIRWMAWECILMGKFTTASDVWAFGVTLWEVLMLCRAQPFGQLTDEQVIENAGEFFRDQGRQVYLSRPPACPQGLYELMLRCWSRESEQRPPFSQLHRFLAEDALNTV

SMILES: Cc1n[nH]c2cc(Nc3cccc4c3C(=O)N(CC(=O)N3CCO[C@@H](C(F)(F)F)C3)C4)cnc12 [Example 68, 7-[(3-methyl-1H-pyrazolo[4,3-b]pyridin-6-yl)amino]-2-[2-oxo-2-[(2R)-(trifluoromethyl)morpholin-4-yl]ethyl]isoindolin-1-one]
- IC50 (Recombinant human DDR2): 100 to 1000 nM
- IC50 (Recombinant human DDR1): 10 to 100 nM

SMILES: Cc1n[nH]c2cc(Nc3cccc4c3C(=O)N(CC(=O)N3CCOC(C(F)(F)F)C3)C4)ccc12 (stereo not drawn) [Example 38, 7-[(3-methyl-1H-indazol-6-yl)amino]-2-[2-oxo-2-[2-(trifluoromethyl)morpholin-4-yl]ethyl]isoindolin-1-one]
- IC50 (Recombinant human DDR2): 10 to 100 nM
- DDR1 pIC50 (Recombinant human DDR1): A (pIC50>8)

SMILES: CN(CC(F)(F)F)C(=O)CN1Cc2cccc(Nc3ccc4c(cnn4C)c3)c2C1=O [Example 43, N-methyl-2-[7-[(1-methylindazol-5-yl)amino]-1-oxo-isoindolin-2-yl]-N-(2,2,2-trifluoroethyl)acetamide]
- IC50 (Recombinant human DDR2): 10 to 100 nM
- DDR1 pIC50 (Recombinant human DDR1): A (pIC50>8)

SMILES: O=C1c2c(cccc2Nc2ccc3[nH]ncc3n2)CN1CC(=O)N1CCC[C@H]1C(F)(F)F [Example 84, 2-[2-oxo-2-[(2S)-(trifluoromethyl)pyrrolidin-1-yl]ethyl]-7-(1H-pyrazolo[4,3-b]pyridin-5-ylamino)isoindolin-1-one]
- IC50 (Recombinant human DDR2): 100 to 1000 nM
- IC50 (Recombinant human DDR1): 10 to 100 nM

SMILES: Cc1n[nH]c2cc(Nc3cccc4c3C(=O)N(CC(=O)Nc3cnoc3)C4)ccc12 [Example 40, N-isoxazol-4-yl-2-[7-[(3-methyl-1H-indazol-6-yl)amino]-1-oxo-isoindolin-2-yl]acetamide]
- DDR2 pIC50 (Recombinant human DDR2): A (pIC50>8)
- DDR1 pIC50 (Recombinant human DDR1): A (pIC50>8)

SMILES: Cn1ncc2cc(Nc3cccc4c3C(=O)N(CC(=O)N3CC(C(F)(F)F)C3)C4)ccc21 [Example 18, 7-[(1-methylindazol-5-yl)amino]-2-[2-oxo-2-[3-(trifluoromethyl)73zetidine-1-yl]ethyl]isoindolin-1-one]
- IC50 (Recombinant human DDR2): 100 to 1000 nM
- IC50 (Recombinant human DDR1): 10 to 100 nM

SMILES: O=C(CN1Cc2cccc(Nc3cnc4[nH]ncc4c3)c2C1=O)NCC(F)(F)F [Example 22, 2-[1-oxo-7-(1H-pyrazolo[3,4-b]pyridin-5-ylamino)isoindolin-2-yl]-N-(2,2,2-trifluoroethyl)acetamide]
- DDR2 pIC50 (Recombinant human DDR2): D (pIC50≤6)
- IC50 (Recombinant human DDR1): 10 to 100 nM

SMILES: CC1c2cccc(Nc3ccc4c(cnn4C)c3)c2C(=O)N1CC(=O)NCC(F)(F)F (stereo not drawn) [Example 15, 2-[1-methyl-4-[(1-methylindazol-5-yl)amino]-3-oxo-isoindolin-2-yl]-N-(2,2,2-trifluoroethyl)acetamide]
- IC50 (Recombinant human DDR2): 10 to 100 nM
- IC50 (Recombinant human DDR1): 10 to 100 nM

SMILES: Cn1ncc2cc(Nc3cccc4c3C(=O)N(CC(=O)N3CC(F)(F)C3)C4)ccc21 [Example 19, 2-[2-(3,3-difluoroazetidin-1-yl)-2-oxo-ethyl]-7-[(1-methylindazol-5-yl)amino]isoindolin-1-one]
- IC50 (Recombinant human DDR2): 100 to 1000 nM
- IC50 (Recombinant human DDR1): 100 to 1000 nM

SMILES: Cc1cc(Nc2cccc3c2C(=O)N(CC(=O)NCC(F)(F)F)C3)cc2cn[nH]c12 [Example 11, 2-[7-[(7-methyl-1H-indazol-5-yl)amino]-1-oxo-isoindolin-2-yl]-N-(2,2,2-trifluoroethyl)acetamide]
- DDR2 pIC50 (Recombinant human DDR2): A (pIC50>8)
- DDR1 pIC50 (Recombinant human DDR1): A (pIC50>8)

SMILES: Cc1n[nH]c2cc(Nc3cccc4c3C(=O)N(CC(=O)N3CCC[C@H]3C(F)(F)F)C4)cnc12 [Example 67, 7-[(3-methyl-1H-pyrazolo[4,3-b]pyridin-6-yl)amino]-2-[2-oxo-2-[(2S)-(trifluoromethyl)pyrrolidin-1-yl]ethyl]isoindolin-1-one]
- IC50 (Recombinant human DDR2): < 10 nM
- IC50 (Recombinant human DDR1): < 10 nM

SMILES: Cc1n[nH]c2cc(Nc3cccc4c3C(=O)N(CC(=O)N3CCC[C@H]3C(F)(F)F)C4)cc(F)c12 [Example 64, 7-[(4-fluoro-3-methyl-1H-indazol-6-yl)amino]-2-[2-oxo-2-[(2S)-(trifluoromethyl)pyrrolidin-1-yl]ethyl]isoindolin-1-one]
- IC50 (Recombinant human DDR2): < 10 nM
- IC50 (Recombinant human DDR1): < 10 nM

SMILES: Cc1n[nH]c2cc(Nc3cccc4c3C(=O)N(CC(=O)NCC(F)(F)F)C4)cnc12 [Example 30, 2-[7-[(3-methyl-1H-pyrazolo[4,3-b]pyridin-6-yl)amino]-1-oxo-isoindolin-2-yl]-N-(2,2,2-trifluoroethyl)acetamide]
- IC50 (Recombinant human DDR2): 10 to 100 nM
- DDR1 pIC50 (Recombinant human DDR1): A (pIC50>8)

SMILES: CC(C)c1n[nH]c2cc(Nc3cccc4c3C(=O)N(CC(=O)NCC(F)(F)F)C4)ccc12 [Example 80, 2-[7-[(3-isopropyl-1H-indazol-6-yl)amino]-1-oxo-isoindolin-2-yl]-N-(2,2,2-trifluoroethyl)acetamide]
- IC50 (Recombinant human DDR2): 100 to 1000 nM
- IC50 (Recombinant human DDR1): 100 to 1000 nM

SMILES: Cc1n[nH]c2cc(Nc3cccc4c3C(=O)N(CC(=O)N3CCC[C@H]3CF)C4)ccc12 [Example 33, 2-[2-[(2S)-(fluoromethyl)pyrrolidin-1-yl]-2-oxo-ethyl]-7-[(3-methyl-1H-indazol-6-yl)amino]isoindolin-1-one]
- DDR2 pIC50 (Recombinant human DDR2): A (pIC50>8)
- DDR1 pIC50 (Recombinant human DDR1): A (pIC50>8)

SMILES: CN(c1ccc2[nH]nc(F)c2c1)c1cccc2c1C(=O)N(CC(=O)N1CCC[C@H]1C(F)(F)F)C2 [Example 92, 7-[(3-fluoro-1H-indazol-5-yl)-methyl-amino]-2-[2-oxo-2-[(2S)-(trifluoromethyl)pyrrolidin-1-yl]ethyl]isoindolin-1-one]
- IC50 (Recombinant human DDR2): 100 to 1000 nM
- IC50 (Recombinant human DDR1): 10 to 100 nM

SMILES: CN(C)Cc1ccc(NC(=O)CN2Cc3cccc(Nc4ccc5c(cnn5C)c4)c3C2=O)cc1C(F)(F)F [Example 13, N-[4-[(dimethylamino)methyl]-3-(trifluoromethyl)phenyl]-2-[7-[(1-methylindazol-5-yl)amino]-1-oxo-isoindolin-2-yl]acetamide]
- IC50 (Recombinant human DDR2): 10 to 100 nM
- DDR1 pIC50 (Recombinant human DDR1): A (pIC50>8)

SMILES: Cn1ncc2cc(Nc3cccc4c3C(=O)N(CC(=O)N3CCCC[C@H]3C(F)(F)F)C4)ccc21 [Example 14, 7-[(1-methylindazol-5-yl)amino]-2-[2-oxo-2-[(2S)-(trifluoromethyl)-1-piperidyl]ethyl]isoindolin-1-one]
- IC50 (Recombinant human DDR2): < 10 nM
- IC50 (Recombinant human DDR1): < 10 nM

SMILES: Cc1n[nH]c2cc(Nc3cccc4c3C(=O)N(CC(=O)N3CCOC[C@H]3C(F)(F)F)C4)cnc12 [Example 70, 7-[(3-methyl-1H-pyrazolo[4,3-b]pyridin-6-yl)amino]-2-[2-oxo-2-[(3S)-(trifluoromethyl)morpholin-4-yl]ethyl]isoindolin-1-one]
- IC50 (Recombinant human DDR2): ≥ 1000 nM
- IC50 (Recombinant human DDR1): 100 to 1000 nM

SMILES: Cc1n[nH]c2cc(Nc3cccc4c3C(=O)N(CC(=O)N[C@@H](C)C(F)(F)F)C4)cnc12 [Example 66, 2-[7-[(3-methyl-1H-pyrazolo[4,3-b]pyridin-6-yl)amino]-1-oxo-isoindolin-2-yl]-N-[(1S)-2,2,2-trifluoro-1-methyl-ethyl]acetamide]
- DDR2 pIC50 (Recombinant human DDR2): A (pIC50>8)
- DDR1 pIC50 (Recombinant human DDR1): A (pIC50>8)

SMILES: Cn1ncc2cc(Nc3cccc4c3C(=O)N(CC(=O)Nc3cccc(C(F)(F)F)c3)C4)ccc21 [Example 5, 2-{7-[(1-methyl-1H-indazol-5-yl)amino]-1-oxo-2,3-dihydro-1H-isoindol-2-yl}-N-[3-(trifluoromethyl)phenyl]acetamide]
- IC50 (Recombinant human DDR2): 10 to 100 nM
- DDR1 pIC50 (Recombinant human DDR1): A (pIC50>8)

SMILES: Cc1n[nH]c2cc(Nc3cccc4c3C(=O)N(CC(=O)N(C)CC(F)(F)F)C4)ccc12 [Example 46, N-methyl-2-[7-[(3-methyl-1H-indazol-6-yl)amino]-1-oxo-isoindolin-2-yl]-N-(2,2,2-trifluoroethyl)acetamide]
- DDR2 pIC50 (Recombinant human DDR2): A (pIC50>8)
- DDR1 pIC50 (Recombinant human DDR1): A (pIC50>8)

SMILES: O=C(CN1Cc2cccc(Nc3ccc4[nH]ncc4c3)c2C1=O)NCC(F)(F)F [Example 21, 2-[7-(1H-indazol-5-ylamino)-1-oxo-isoindolin-2-yl]-N-(2,2,2-trifluoroethyl)acetamide]
- IC50 (Recombinant human DDR2): 10 to 100 nM
- DDR1 pIC50 (Recombinant human DDR1): A (pIC50>8)

SMILES: Cc1n[nH]c2cc(Nc3cccc4c3C(=O)N(CC(=O)NCC(F)(F)F)C4)cc(F)c12 [Example 62, 2-[7-[(4-fluoro-3-methyl-1H-indazol-6-yl)amino]-1-oxo-isoindolin-2-yl]-N-(2,2,2-trifluoroethyl)acetamide]
- DDR2 pIC50 (Recombinant human DDR2): A (pIC50>8)
- DDR1 pIC50 (Recombinant human DDR1): A (pIC50>8)

SMILES: Cc1n[nH]c2cc(Nc3cccc4c3C(=O)N(CC(=O)N3CCCC[C@H]3C(F)(F)F)C4)ccc12 [Example 42, 7-[(3-methyl-1H-indazol-6-yl)amino]-2-[2-oxo-2-[(2S)-(trifluoromethyl)-1-piperidyl]ethyl]isoindolin-1-one]
- IC50 (Recombinant human DDR2): < 10 nM
- IC50 (Recombinant human DDR1): < 10 nM

SMILES: Cn1ncc2cc(Nc3cccc4c3C(=O)N(CC(=O)N3CCC[C@H]3C(F)(F)F)C4)cc(F)c21 [Example 96, 7-[(7-fluoro-1-methyl-indazol-5-yl)amino]-2-[2-oxo-2-[(2S)-(trifluoromethyl)pyrrolidin-1-yl]ethyl]isoindolin-1-one]
- DDR2 pIC50 (Recombinant human DDR2): A (pIC50>8)
- DDR1 pIC50 (Recombinant human DDR1): A (pIC50>8)

SMILES: CN(c1ccc2c(cnn2C)c1)c1cccc2c1C(=O)N(CC(=O)NCC(F)(F)F)C2 [Example 8, 2-[7-[methyl-(1-methylindazol-5-yl)amino]-1-oxo-isoindolin-2-yl]-N-(2,2,2-trifluoroethyl)acetamide]
- IC50 (Recombinant human DDR2): 10 to 100 nM
- IC50 (Recombinant human DDR1): 10 to 100 nM
